Source: publication PMC10523529 (Proceedings of the National Academy of Sciences of the …, 2023)
pKd: −log10 of the molar value.

Biological target: T1, TAK1 (TAK1-TAB1 fusion protein) (Homo sapiens, UniProt O43318)
T1 sequence (O43318 15-303): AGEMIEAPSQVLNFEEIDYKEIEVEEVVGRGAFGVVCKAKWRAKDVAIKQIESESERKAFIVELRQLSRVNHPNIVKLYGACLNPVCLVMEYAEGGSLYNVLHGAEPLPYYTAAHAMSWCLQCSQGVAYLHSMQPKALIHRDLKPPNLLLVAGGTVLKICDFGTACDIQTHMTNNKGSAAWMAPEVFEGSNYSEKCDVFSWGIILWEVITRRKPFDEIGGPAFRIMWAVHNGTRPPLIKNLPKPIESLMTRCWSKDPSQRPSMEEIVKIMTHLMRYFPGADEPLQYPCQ
T1 sequence (Q15750 468-504 partner): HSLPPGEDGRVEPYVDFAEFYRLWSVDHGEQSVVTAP
Experiment: SPR
Format: binding

pKd: 4.92
Structure (SMILES): COc1cc(Nc2ncc(F)c(Nc3ccc4c(n3)N(COP(=O)(O)O)C(=O)C(C)(C)O4)n2)cc(OC)c1OC [R788]
